Data as given in article PMC3508718 (Clinical pharmacokinetics, 2012).
Read-outs that look alike come from different tables or passages of the source. Each block holds one compound with its values, some of them ahead of it.

Tests used:
[1] = Model-predicted AUCτ in BP and CVF and CVF:BP AUC ratios; assay type: in vivo, HIV-infected pre-menopausal women
[2] = female, human, in vivo
wild-type HIV virus = conditions: cited from earlier work
[3] = non-compartmental analysis; ref [13]; cited from earlier work
[4] = Population pharmacokinetic co-modelling of blood plasma; conditions: female, human
[5] = cited from earlier work
[6] = female, human, in vivo, CVF AUCτ:BP AUCτ ratio
[7] = female, human, in vivo, CVF AUCτ:BP fAUCτ ratio
[8] = first dose, median (25th, 75th percentiles), model-predicted
[9] = multiple dose, median (25th, 75th percentiles), model-predicted

Compound: COC(=O)N[C@H](C(=O)N[C@@H](Cc1ccccc1)[C@@H](O)CN(Cc1ccc(-c2ccccn2)cc1)NC(=O)[C@@H](NC(=O)OC)C(C)(C)C)C(C)(C)C [Atazanavir, atazanavir]
AUC ([1]; female, human, in vivo, BP AUCτ, first dose, median (25th, 75th percentiles), model-predicted): 25.3 ng·h/mL
AUC ([1]; female, human, in vivo, BP AUCτ, multiple dose, median (25th, 75th percentiles), model-predicted): 54.6 ng·h/mL
AUC ([1]; female, human, in vivo, CVF AUCτ, first dose, median (25th, 75th percentiles), model-predicted): 5.66 ng·h/mL
AUC ([1]; female, human, in vivo, CVF AUCτ, multiple dose, median (25th, 75th percentiles), model-predicted): 5.53 ng·h/mL
Kp [1, 6]: 0.299
Kp [1, 7]: 2.14
BP fAUCτ (unbound) [1, 8]: 3.55 (0.867, 6.15) μg•h/L
BP fAUCτ (unbound) [1, 9]: 7.64 (1.61, 9.54) μg•h/L
ka,FD (first-order absorption rate constant, first dose) [2]: 0.879 (79.5) [29.0] h^−1
tauFD (transit compartment transfer rate constant BP to CVF, first dose) [2]: 0.773 (145) [52.8] h^−1
tauMD (transit compartment transfer rate constant BP to CVF, multiple dose) [2]: 1.41 (216) [85.2] h^−1
IC50 (concentration producing 50 % inhibition of wild-type HIV virus) (wild-type HIV virus; ref [15]): 11 ng/mL
penetration / exposure in CVF relative to BP (in words) [3]: moderately penetrative
Vd ([4]; in vivo): 10.4 L

Compound: O=C1Nc2ccc(Cl)cc2[C@@](C#CC2CC2)(C(F)(F)F)O1 [Efavirenz, efavirenz]
AUC ([1]; female, human, CVF, oral, CVF AUCτ, multiple dose, median (25th, 75th percentiles), model-predicted): 0.262 ng·h/mL
AUC ([1]; female, human, cervicovaginal fluid, oral, CVF AUCτ, first dose, median (25th, 75th percentiles), model-predicted): 0.0127 ng·h/mL
CVF AUCτ:BP fAUCτ ratio ([1]; female, human, in vivo): 0.527 (0.298, 1.28)
Kp [1, 6]: 0.00527
AUC ([1]; female, human, plasma, oral, BP AUCτ, first dose, median (25th, 75th percentiles), model-predicted): 24.5 ng·h/mL
AUC ([1]; female, human, plasma, oral, BP AUCτ, multiple dose, median (25th, 75th percentiles), model-predicted): 46.7 ng·h/mL
BP fAUCτ (unbound) [1, 8]: 0.245 (0.161, 0.303) μg•h/L
BP fAUCτ (unbound) [1, 9]: 0.470 (0.339, 1.06) μg•h/L
ka,FD (first-order absorption rate constant, first dose) [2]: 1.75 (52.7) [18.9] h^−1
ka,MD (first-order absorption rate constant, multiple dose) [2]: 0.945 (139) [54.0] h^−1
tauFD (transit compartment transfer rate constant BP to CVF, first dose) [2]: 0.866 (208) [77.5] h^−1
tauMD (transit compartment transfer rate constant BP to CVF, multiple dose) [2]: 0.383 (156) [55.8] h^−1
estimated fu (protein-unbound fraction in blood) ([5]; used in the model to control drug transfer into CVF, ref [14]–[17]): 0.01
IC50 (concentration producing 50 % inhibition of wild-type HIV virus) (wild-type HIV virus; ref [36]): 0.51 ng/mL
penetration / exposure in CVF relative to BP (in words) [3]: very low penetration into CVF
Vd ([4]; cervicovaginal fluid, oral): 2.55 L

CVF AUCτ ([1]; female, human, in vivo, 150 mg): 10.0 (6.07, 48.9) μg•h/L
AUC ([1]; female, human, in vivo, 150 mg, BP AUCτ): 3.86 ng·h/mL
AUC ([1]; female, human, in vivo, 300 mg, BP AUCτ): 10.1 ng·h/mL
AUC ([1]; female, human, in vivo, 300 mg, CVF AUCτ): 62.2 ng·h/mL
Compound: Nc1ccn([C@@H]2CS[C@H](CO)O2)c(=O)n1 [Lamivudine, lamivudine]
protein binding ([5]; ref [17]): 40%

BP fAUCτ (unbound) ([1]; female, human, in vivo): 2.38 (1.59, 4.35) μg•h/L
AUC ([1]; female, human, in vivo, BP AUCτ): 2.56 ng·h/mL
AUC ([1]; female, human, in vivo, CVF AUCτ): 4.18 ng·h/mL
Kp [1, 6]: 1.57
Kp [1, 7]: 1.68
ka,FD (first-order absorption rate constant, first dose) [2]: 1.72 (61.1) [99.8] h^−1
ka,MD (first-order absorption rate constant, multiple dose) [2]: 1.05 (69.8) [30.0] h^−1
kg12 (transfer rate constant from CVF compartment 1 to 2) [2]: 0.525 (203) [63.6] h^−1
kg21 (transfer rate constant from CVF compartment 2 to 1) [2]: 0.323 (97.6) [60.7] h^−1
tauFD (transit compartment transfer rate constant BP to CVF, first dose) [2]: 1.53 (106) [71.1] h^−1
tauMD (transit compartment transfer rate constant BP to CVF, multiple dose) [2]: 1.24 (103) [130] h^−1
Compound: C[C@H](Cn1cnc2c(N)ncnc21)OCP(=O)(O)O [Tenofovir, tenofovir]
protein binding ([5]; ref [16]): < 7%
